By IC50 is commonly meant the concentration that inhibits the measured activity by half.

The text below walks through data of BindingDB's records for patent US20260055108 (Hutchmed, 2026).

This assay deals with T1, Menin [2-610] (UniProt O00255).
T1 construct: 2-610
T1 sequence (O00255 whole entry): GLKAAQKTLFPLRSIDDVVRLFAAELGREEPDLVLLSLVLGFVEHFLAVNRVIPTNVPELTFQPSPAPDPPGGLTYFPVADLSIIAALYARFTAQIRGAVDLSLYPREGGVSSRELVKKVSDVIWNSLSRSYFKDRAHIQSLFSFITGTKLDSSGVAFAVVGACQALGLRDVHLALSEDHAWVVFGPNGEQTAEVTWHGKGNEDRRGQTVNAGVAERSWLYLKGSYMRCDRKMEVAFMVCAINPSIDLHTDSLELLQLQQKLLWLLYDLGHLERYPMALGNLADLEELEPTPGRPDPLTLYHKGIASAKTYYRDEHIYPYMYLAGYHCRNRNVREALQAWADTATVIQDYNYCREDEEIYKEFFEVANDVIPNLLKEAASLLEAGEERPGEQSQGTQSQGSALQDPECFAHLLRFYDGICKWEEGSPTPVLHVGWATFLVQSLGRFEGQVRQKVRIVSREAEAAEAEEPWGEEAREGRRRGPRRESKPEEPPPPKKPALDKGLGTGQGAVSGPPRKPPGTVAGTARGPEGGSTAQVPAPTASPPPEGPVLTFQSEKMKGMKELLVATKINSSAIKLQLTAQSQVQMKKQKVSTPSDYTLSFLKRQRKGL
The assay is described as follows: Fluorescence Polarization Assay. How it is done:
4 μL of 5× test compound was added to each reaction well of the 384-well plate, and the corresponding volume of 10% DMSO was added to the control wells. Except the control wells, 8 μL of Menin protein reaction solution was added to each well. The reaction solution was incubated at room temperature for 30 minutes, and then 8 μL of MLL polypeptide reaction solution was added to each well. The final concentrations of DMSO in the test compound wells and control wells were all 2%. The 384-well plate was sealed and incubated at room temperature for 30 minutes in the dark.
Background: In fluorescence polarisation assays a small probe gives low polarisation when free and higher when bound to something large.

The structures appear in SMILES notation.

In the case of `CCNC(=O)N1CCC(CN2CCC3(CC2)CN(c2ncnnc2Oc2ccc(F)cc2C(=O)N(CC)C(C)C)C3)CC1` [US20260055108, Compound 28], it took 2.2 nM to reach half-maximal inhibition (IC50).
